From PubChem BioAssay AID1918999 (Molecular Pharmacology Branch, DTP, NCI, 2023)
pIC50: −log10 of the molar value.

Tested on: 556581-035-R-J1-PDC complex spheroid growth
Assay: Anticancer human tumor 556581-035-R-J1-PDC patient-derived ovarian carcinoma cell line growth inhibition [AhR]
Settings: for pIC50: curve of first compound; for viability, T/C: stronger effect = lower value; active means viability on the fitted dose curve at most 10% of control; inactive means the rest
Method in brief: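 Agents were dosed in half-log steps down from roughly clinical Cmax, or from 10 microM where Cmax was unknown, alone and with AhR antagonists. Read-out: percent test/control growth of tumor spheroids containing HUVEC and MSC stromal cells.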

[1] = second compound 0.1 µM, first compound 0.0316 µM
[2] = second compound 0.1 µM, first compound 0.1 µM
[3] = second compound 0.1 µM, first compound 0.316 µM
[4] = second compound 0.1 µM, first compound 1 µM
[5] = second compound 0.1 µM, first compound 3.16 µM
[6] = second compound 0.1 µM, first compound 10 µM
[7] = second compound 0.316 µM, first compound 0.0316 µM
[8] = second compound 0.316 µM, first compound 0.1 µM
[9] = second compound 0.316 µM, first compound 0.316 µM
[10] = second compound 0.316 µM, first compound 1 µM
[11] = second compound 0.316 µM, first compound 3.16 µM
[12] = second compound 0.316 µM, first compound 10 µM
[13] = second compound 1 µM, first compound 0.0316 µM
[14] = second compound 1 µM, first compound 0.1 µM
[15] = second compound 1 µM, first compound 0.316 µM
[16] = second compound 1 µM, first compound 1 µM
[17] = second compound 1 µM, first compound 3.16 µM
[18] = second compound 1 µM, first compound 10 µM
[19] = second compound 3.16 µM, first compound 0.0316 µM
[20] = second compound 3.16 µM, first compound 0.1 µM
[21] = second compound 3.16 µM, first compound 0.316 µM
[22] = second compound 3.16 µM, first compound 1 µM
[23] = second compound 3.16 µM, first compound 3.16 µM
[24] = second compound 3.16 µM, first compound 10 µM
[25] = second compound 10 µM, first compound 0.0316 µM
[26] = second compound 10 µM, first compound 0.1 µM
[27] = second compound 10 µM, first compound 0.316 µM
[28] = second compound 10 µM, first compound 1 µM
[29] = second compound 10 µM, first compound 3.16 µM
[30] = second compound 10 µM, first compound 10 µM
[31] = second compound 0.1 µM, first compound 0.00949 µM
[32] = second compound 0.1 µM, first compound 0.03 µM
[33] = second compound 0.1 µM, first compound 0.0949 µM
[34] = second compound 0.1 µM, first compound 0.3 µM
[35] = second compound 0.1 µM, first compound 0.949 µM
[36] = second compound 0.1 µM, first compound 3 µM
[37] = second compound 0.316 µM, first compound 0.00949 µM
[38] = second compound 0.316 µM, first compound 0.03 µM
[39] = second compound 0.316 µM, first compound 0.0949 µM
[40] = second compound 0.316 µM, first compound 0.3 µM
[41] = second compound 0.316 µM, first compound 0.949 µM
[42] = second compound 0.316 µM, first compound 3 µM
[43] = second compound 1 µM, first compound 0.00949 µM
[44] = second compound 1 µM, first compound 0.03 µM
[45] = second compound 1 µM, first compound 0.0949 µM
[46] = second compound 1 µM, first compound 0.3 µM
[47] = second compound 1 µM, first compound 0.949 µM
[48] = second compound 1 µM, first compound 3 µM
[49] = second compound 3.16 µM, first compound 0.00949 µM
[50] = second compound 3.16 µM, first compound 0.03 µM
[51] = second compound 3.16 µM, first compound 0.0949 µM
[52] = second compound 3.16 µM, first compound 0.3 µM
[53] = second compound 3.16 µM, first compound 0.949 µM
[54] = second compound 3.16 µM, first compound 3 µM
[55] = second compound 10 µM, first compound 0.00949 µM
[56] = second compound 10 µM, first compound 0.03 µM
[57] = second compound 10 µM, first compound 0.0949 µM
[58] = second compound 10 µM, first compound 0.3 µM
[59] = second compound 10 µM, first compound 0.949 µM
[60] = second compound 10 µM, first compound 3 µM
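Wherever viability, T/C is given: compound exposure lasted 7 days; 100% = DMSO vehicle control growth.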

CC1(C)CCC(CN2CCN(c3ccc(C(=O)NS(=O)(=O)c4ccc(NCC5CCOCC5)c([N+](=O)[O-])c4)c(Oc4cnc5[nH]ccc5c4)c3)CC2)=C(c2ccc(Cl)cc2)C1 + Cc1cncc(-c2nc(NCCc3c[nH]c4ccccc34)c3ncn(C(C)C)c3n2)c1
inactive: viability, T/C [1] 104% | viability, T/C [2] 98.6% | viability, T/C [3] 102% | viability, T/C [4] 91% | viability, T/C [5] 93.1% | viability, T/C [6] 77.5% | viability, T/C [7] 95.6% | viability, T/C [8] 98.2% | viability, T/C [9] 102% | viability, T/C [10] 95.1% | viability, T/C [11] 96.3% | viability, T/C [12] 72.3% | viability, T/C [13] 105% | viability, T/C [14] 99.9% | viability, T/C [15] 101% | viability, T/C [16] 91.5% | viability, T/C [17] 85.6% | viability, T/C [18] 76.9% | viability, T/C [19] 95.2% | viability, T/C [20] 101% | viability, T/C [21] 91% | viability, T/C [22] 87.8% | viability, T/C [23] 80.6% | viability, T/C [24] 67.8% | viability, T/C [25] 88.9% | viability, T/C [26] 80.6% | viability, T/C [27] 87.6% | viability, T/C [28] 83.7% | viability, T/C [29] 81.2% | viability, T/C [30] 67.1%
< 5.00: pIC50 (second compound 0.1 µM) | pIC50 (second compound 0.316 µM) | pIC50 (second compound 1 µM) | pIC50 (second compound 3.16 µM) | pIC50 (second compound 10 µM)

CC1COCCN1c1cc(C2(S(C)(=N)=O)CC2)nc(-c2ccnc3[nH]ccc23)n1 (stereo not given) + Cc1cncc(-c2nc(NCCc3c[nH]c4ccccc34)c3ncn(C(C)C)c3n2)c1
< 5.00: pIC50 (second compound 0.1 µM) | pIC50 (second compound 0.316 µM) | pIC50 (second compound 1 µM) | pIC50 (second compound 3.16 µM) | pIC50 (second compound 10 µM)
inactive: viability, T/C [1] 103% | viability, T/C [2] 104% | viability, T/C [3] 92.2% | viability, T/C [4] 93.3% | viability, T/C [5] 73.5% | viability, T/C [6] 67.4% | viability, T/C [7] 99% | viability, T/C [8] 97.9% | viability, T/C [9] 99.4% | viability, T/C [10] 95.4% | viability, T/C [11] 82.5% | viability, T/C [12] 68.9% | viability, T/C [13] 101% | viability, T/C [14] 106% | viability, T/C [15] 102% | viability, T/C [16] 94.7% | viability, T/C [17] 85% | viability, T/C [18] 67.3% | viability, T/C [19] 111% | viability, T/C [20] 103% | viability, T/C [21] 92.2% | viability, T/C [22] 99.2% | viability, T/C [23] 74.2% | viability, T/C [24] 78.2% | viability, T/C [25] 80.4% | viability, T/C [26] 90.1% | viability, T/C [27] 80.7% | viability, T/C [28] 90.9% | viability, T/C [29] 79.5% | viability, T/C [30] 63.8%

CCN(c1cc(-c2ccc(CN3CCOCC3)cc2)cc(C(=O)NCc2c(C)cc(C)[nH]c2=O)c1C)C1CCOCC1 + Cc1cncc(-c2nc(NCCc3c[nH]c4ccccc34)c3ncn(C(C)C)c3n2)c1
5.65: pIC50 (second compound 10 µM)
inactive: viability, T/C [31] 97.7% | viability, T/C [32] 109% | viability, T/C [33] 96.2% | viability, T/C [34] 102% | viability, T/C [35] 102% | viability, T/C [36] 100% | viability, T/C [37] 98% | viability, T/C [38] 96.2% | viability, T/C [39] 102% | viability, T/C [40] 101% | viability, T/C [41] 99.5% | viability, T/C [42] 104% | viability, T/C [43] 104% | viability, T/C [44] 118% | viability, T/C [45] 112% | viability, T/C [46] 94.9% | viability, T/C [47] 88.2% | viability, T/C [48] 92.3% | viability, T/C [49] 86.4% | viability, T/C [50] 99.3% | viability, T/C [51] 101% | viability, T/C [52] 88.6% | viability, T/C [53] 92.1% | viability, T/C [54] 92.2% | viability, T/C [55] 84.4% | viability, T/C [56] 83.8% | viability, T/C [57] 83.3% | viability, T/C [58] 69.6% | viability, T/C [59] 66.5% | viability, T/C [60] 44.3%
< 5.52: pIC50 (second compound 0.1 µM) | pIC50 (second compound 0.316 µM) | pIC50 (second compound 1 µM) | pIC50 (second compound 3.16 µM)

Nc1ncn(C2CC(O)C(CO)S2)c(=O)n1 (stereo not given) + Cc1cncc(-c2nc(NCCc3c[nH]c4ccccc34)c3ncn(C(C)C)c3n2)c1
< 6.52: pIC50 (second compound 0.1 µM) | pIC50 (second compound 0.316 µM) | pIC50 (second compound 1 µM) | pIC50 (second compound 3.16 µM) | pIC50 (second compound 10 µM)
inactive: viability, T/C (second compound 0.1 µM, first compound 0.000949 µM) 99.3% | viability, T/C (second compound 0.1 µM, first compound 0.003 µM) 102% | viability, T/C [31] 88.9% | viability, T/C [32] 93.8% | viability, T/C [33] 82% | viability, T/C [34] 67.3% | viability, T/C (second compound 0.316 µM, first compound 0.000949 µM) 113% | viability, T/C (second compound 0.316 µM, first compound 0.003 µM) 109% | viability, T/C [37] 111% | viability, T/C [38] 93.2% | viability, T/C [39] 81% | viability, T/C [40] 68% | viability, T/C (second compound 1 µM, first compound 0.000949 µM) 116% | viability, T/C (second compound 1 µM, first compound 0.003 µM) 109% | viability, T/C [43] 99.5% | viability, T/C [44] 106% | viability, T/C [45] 85.7% | viability, T/C [46] 80.4% | viability, T/C (second compound 3.16 µM, first compound 0.000949 µM) 87.7% | viability, T/C (second compound 3.16 µM, first compound 0.003 µM) 84.8% | viability, T/C [49] 95.8% | viability, T/C [50] 94.3% | viability, T/C [51] 79.5% | viability, T/C [52] 72.9% | viability, T/C (second compound 10 µM, first compound 0.000949 µM) 84.7% | viability, T/C (second compound 10 µM, first compound 0.003 µM) 86.7% | viability, T/C [55] 91.6% | viability, T/C [56] 87.3% | viability, T/C [57] 79.4% | viability, T/C [58] 72.6%

O=C(C=Cn1cnc(-c2cc(C(F)(F)F)cc(C(F)(F)F)c2)n1)NNc1cnccn1 + Cc1cncc(-c2nc(NCCc3c[nH]c4ccccc34)c3ncn(C(C)C)c3n2)c1
< 5.52: pIC50 (second compound 0.1 µM) | pIC50 (second compound 0.316 µM) | pIC50 (second compound 3.16 µM) | pIC50 (second compound 10 µM)
5.73: pIC50 (second compound 1 µM)
inactive: viability, T/C [31] 94.2% | viability, T/C [32] 99.9% | viability, T/C [33] 95.5% | viability, T/C [34] 85.9% | viability, T/C [35] 70.8% | viability, T/C [36] 56.3% | viability, T/C [37] 85.5% | viability, T/C [38] 96.2% | viability, T/C [39] 74.8% | viability, T/C [40] 73.8% | viability, T/C [41] 62.6% | viability, T/C [42] 50.1% | viability, T/C [43] 93.9% | viability, T/C [44] 94.8% | viability, T/C [45] 87.5% | viability, T/C [46] 78.2% | viability, T/C [47] 65.4% | viability, T/C [48] 39.4% | viability, T/C [49] 92.8% | viability, T/C [50] 97.1% | viability, T/C [51] 95.9% | viability, T/C [52] 74.8% | viability, T/C [53] 57.3% | viability, T/C [54] 50.4% | viability, T/C [55] 81.6% | viability, T/C [56] 84.6% | viability, T/C [57] 73.9% | viability, T/C [58] 72.7% | viability, T/C [59] 64.8% | viability, T/C [60] 68.9%
